# Results reported in PubChem BioAssay AID2060487 (Molecular Pharmacology Branch, DTP, NCI, 2025).
# “And” between values parts separate entries of the source, which are not always exact repeats. Identical values can stand only once.
# Test system: 997537-175-T-J1-PDC complex spheroid viability
# Assay: Anticancer human tumor 997537-175-T-J1-PDC patient-derived colon adenocarcinoma cell line growth inhibition [GQUAD]
# Conditions: for viability, T/C: stronger effect = lower value
# Excerpt: DNA G-quadruplex Stabilizer Agents in Combinations in Complex Spheroids
# A high-throughput screen of multi-cell type tumor spheroids was designed to identify active combinations of DNA G-quadruplex stabilizer agents and targeted small molecules. Complex spheroids include a stromal component modeled by human endothelial cells (HUVEC) and fibroblasts modeled by human mesenchymal stem cells (MSCs). The concentration ranges selected for each drug and investigational agent were based upon clinically achievable concentrations if the clinical Cmax of the agent was known.
# Compounds. The drugs and investigational agents: pidnarulex (CX-5461; NSC782164), APTO-253 (NSC789042), BRACO-19 (NSC847499), peposertib (NSC802822), ceralasertib (NSC780249), elimusertib (NSC800525), camonsertib (NSC841442), AZD-1390 (NSC803789), olaparib (NSC753686), talazoparib (NSC767125), ART-558 (NSC835418), sotorasib (NSC818433), MRTX-1133 (NSC836407), SN-38 (NSC673596), topotecan (NSC609699), etoposide (NSC141540), doxorubicin (NSC123127), gemcitabine (NSC613327), 5-fluorouracil (NSC19893), paclitaxel (NSC125973), vemurafenib (NSC761431), panobinostat (NSC761190), R-306465 (JNJ-16241199; NSC773264), adavosertib (NSC754352), TP-3654 (NSC805149), carboplatin (NSC241240), KSQ-4279 (NSC840948), and staurosporine (NSC755774) were obtained from the National Cancer Institute (NCI) Developmental Therapeutics Program Chemical Repository (34). The FDA-approved anticancer drug set is available from the NCI Developmental Therapeutics Program. […] The stock solutions were prepared in dimethyl sulfoxide (DMSO, Sigma-Aldrich, St. Louis, MO, cat. D2650) at 800-fold the tested concentration and stored at -70 degrees C prior to their use. All drugs and investigational agents were tested over a range starting from a high concentration at or near the clinical Cmax and decreasing in half-log increments. If the clinical Cmax for an agent had not been determined, the highest concentration tested was 10 microM.
# 2.3 Cell Culture. All cells were maintained in an incubator at 37 degrees C and 5% CO2 with 95% humidity. The PDC lines were cultured according to standard operating procedures established by the NCI PDMR. All PDCs were thawed and cultured in Matrigel-coated flasks prepared with a working solution of 1X Ham's F-12 nutrient mix, without supplementation (Invitrogen, cat. 11765054), 100 U/mL penicillin-streptomycin (Invitrogen, cat. 15140122), and 2.5% Matrigel (Corning Inc., cat. 354248) for the first three passages. The 857933-349-R-J2-PDC line was cultured in 6C/Colon 1B media, which includes advanced DMEM/F-12 (Thermo Fisher Scientific, cat. 12634028), 10 mM HEPES (Thermo Fisher Scientific, cat. 15630080), 1X GlutaMAX supplement (Thermo Fisher Scientific, cat. 35050061), 0.1 mg/mL primocin (InvivoGen, cat. ant-pm-2), 10% defined fetal bovine serum, heat inactivated (HyClone Laboratories Inc., cat. SH30070.03HI), 50% L-WRN conditioned media (ATCC, cat. CRL-3276), 1.25 mM N-Acetyl-L-cysteine (Sigma-Aldrich, cat. A9165), 10 mM nicotinamide (Sigma-Aldrich, cat. N0636), 1X B-27 supplement (Thermo Fisher Scientific, cat. 17504044), 1X N-2 supplement (Thermo Fisher Scientific, cat. 17502048), 10 microM Y-27632 dihydrochloride (Tocris Bioscience, cat. 1254), and 50 ng/mL human EGF recombinant protein (Thermo Fisher Scientific, cat. PHG0311). The 485176-168-R4-J1-PDC line was cultured in Panc media, which includes all 6C/Colon 1B media components plus 100 ng/mL human FGF-10 (Thermo Fisher Scientific, cat. 100-26), 500 nM SB-431542 (Selleckchem, cat. S1067), and gastrin (Tocris, cat. 3006).
# […]
# [1] = curve of first compound, second compound 0.0316 µM
# [2] = curve of first compound, second compound 0.1 µM
# [3] = curve of first compound, second compound 0.316 µM
# [4] = curve of first compound, second compound 1 µM
# [5] = curve of first compound, second compound 3.16 µM
# [6] = curve of first compound, second compound 10 µM
# [7] = second compound 0.0316 µM, first compound 0.0316 µM
# [8] = second compound 0.0316 µM, first compound 0.1 µM
# [9] = second compound 0.0316 µM, first compound 0.316 µM
# [10] = second compound 0.0316 µM, first compound 1 µM
# [11] = second compound 0.0316 µM, first compound 3.16 µM
# [12] = second compound 0.0316 µM, first compound 10 µM
# [13] = second compound 0.1 µM, first compound 0.0316 µM
# [14] = second compound 0.1 µM, first compound 0.1 µM
# [15] = second compound 0.1 µM, first compound 0.316 µM
# [16] = second compound 0.1 µM, first compound 1 µM
# [17] = second compound 0.1 µM, first compound 3.16 µM
# [18] = second compound 0.1 µM, first compound 10 µM
# [19] = second compound 0.316 µM, first compound 0.0316 µM
# [20] = second compound 0.316 µM, first compound 0.1 µM
# [21] = second compound 0.316 µM, first compound 0.316 µM
# [22] = second compound 0.316 µM, first compound 1 µM
# [23] = second compound 0.316 µM, first compound 3.16 µM
# [24] = second compound 0.316 µM, first compound 10 µM
# [25] = second compound 1 µM, first compound 0.0316 µM
# [26] = second compound 1 µM, first compound 0.1 µM
# [27] = second compound 1 µM, first compound 0.316 µM
# [28] = second compound 1 µM, first compound 1 µM
# [29] = second compound 1 µM, first compound 3.16 µM
# [30] = second compound 1 µM, first compound 10 µM
# [31] = second compound 3.16 µM, first compound 0.0316 µM
# [32] = second compound 3.16 µM, first compound 0.1 µM
# [33] = second compound 3.16 µM, first compound 0.316 µM
# [34] = second compound 3.16 µM, first compound 1 µM
# [35] = second compound 3.16 µM, first compound 3.16 µM
# [36] = second compound 3.16 µM, first compound 10 µM
# [37] = second compound 10 µM, first compound 0.0316 µM
# [38] = second compound 10 µM, first compound 0.1 µM
# [39] = second compound 10 µM, first compound 0.316 µM
# [40] = second compound 10 µM, first compound 1 µM
# [41] = second compound 10 µM, first compound 3.16 µM
# [42] = second compound 10 µM, first compound 10 µM
# 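Also: spheroids exposed to the agents for 7 days.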
# 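For viability, T/C in this document: 100% = DMSO vehicle control viability.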
compound,measurement,setting,value
COc1ncnc(C2CC2)c1-c1ncc2cnn(Cc3ccc(-c4nc(C(F)(F)F)cn4C(C)C)cc3)c2n1 + Cc1cnc(CNC(=O)c2c(=O)c3ccc(N4CCCN(C)CC4)nc3n3c2sc2ccccc23)cn1,IC50,[1],> 10 µM
same,IC50,[2],> 10 µM
same,IC50,[3],> 10 µM
same,IC50,[4],> 10 µM
same,IC50,[5],> 10 µM
same,IC50,[6],> 10 µM
same,"viability, T/C",[7],118%
same,"viability, T/C",[8],78.4%
same,"viability, T/C",[9],102%
same,"viability, T/C",[10],66.6%
same,"viability, T/C",[11],55.3%
same,"viability, T/C",[12],96.1%
same,"viability, T/C",[13],95.3%
same,"viability, T/C",[14],69%
same,"viability, T/C",[15],88.5%
same,"viability, T/C",[16],92.5%
same,"viability, T/C",[17],85%
same,"viability, T/C",[18],94.5%
same,"viability, T/C",[19],89.1%
same,"viability, T/C",[20],86.2%
same,"viability, T/C",[21],89.5%
same,"viability, T/C",[22],88.5%
same,"viability, T/C",[23],91.3%
same,"viability, T/C",[24],92.7%
same,"viability, T/C",[25],73.8%
same,"viability, T/C",[26],85.1%
same,"viability, T/C",[27],100%
same,"viability, T/C",[28],101%
same,"viability, T/C",[29],121%
same,"viability, T/C",[30],97.5%
same,"viability, T/C",[31],56%
same,"viability, T/C",[32],107%
same,"viability, T/C",[33],104%
same,"viability, T/C",[34],84.7%
same,"viability, T/C",[35],106%
same,"viability, T/C",[36],97.4%
same,"viability, T/C",[37],75.3%
same,"viability, T/C",[38],109%
same,"viability, T/C",[39],101%
same,"viability, T/C",[40],92%
same,"viability, T/C",[41],102%
same,"viability, T/C",[42],116%
CC1COCCN1c1cc(C2(O)CC3CCC(C2)O3)c2cnn(-c3ccn[nH]3)c2n1 (stereo unspecified) + Cc1cnc(CNC(=O)c2c(=O)c3ccc(N4CCCN(C)CC4)nc3n3c2sc2ccccc23)cn1,IC50,[1],0.0848 µM
same,IC50,[2],< 0.0316 µM
same,IC50,[3],0.081 µM
same,IC50,[4],< 0.0316 µM
same,IC50,[5],> 10 µM
same,IC50,[6],3.61 µM
same,"viability, T/C",[7],64%
same,"viability, T/C",[8],52.9%
same,"viability, T/C",[9],33.3%
same,"viability, T/C",[10],38.8%
same,"viability, T/C",[11],42.9%
same,"viability, T/C",[12],44.8%
same,"viability, T/C",[13],51.1%
same,"viability, T/C",[14],49%
same,"viability, T/C",[15],37.5%
same,"viability, T/C",[16],27.6%
same,"viability, T/C",[17],41.2%
same,"viability, T/C",[18],58.5%
same,"viability, T/C",[19],53%
same,"viability, T/C",[20],52.3%
same,"viability, T/C",[21],35.7%
same,"viability, T/C",[22],57.1%
same,"viability, T/C",[23],43%
same,"viability, T/C",[24],43.4%
same,"viability, T/C",[25],47.9%
same,"viability, T/C",[26],42.6%
same,"viability, T/C",[27],38.4%
same,"viability, T/C",[28],42.9%
same,"viability, T/C",[29],62.7%
same,"viability, T/C",[30],28.6%
same,"viability, T/C",[31],48.6%
same,"viability, T/C",[32],56.9%
same,"viability, T/C",[33],62.7%
same,"viability, T/C",[34],41.8%
same,"viability, T/C",[35],54.2%
same,"viability, T/C",[36],53%
same,"viability, T/C",[37],59.5%
same,"viability, T/C",[38],63.1%
same,"viability, T/C",[39],55.8%
same,"viability, T/C",[40],53.9%
same,"viability, T/C",[41],53.1%
same,"viability, T/C",[42],42.4%
Cc1[nH]c2ccc(F)cc2c1-c1nc2c3cccnc3c3ncccc3c2[nH]1,"viability, T/C",compound 0.1 µM,95.2% [middle of 12 runs]
same,"viability, T/C",compound 0.316 µM,98.8% [middle of 12 runs]
same,"viability, T/C",compound 3.16 µM,89.3% [middle of 12 runs]
same,IC50,"compound alone, run of 04/16/2024",> 10 µM
same,IC50,"compound alone, run of 04/22/2024",> 10 µM
CC1COCCN1c1cc(C2(S(C)(=N)=O)CC2)nc(-c2ccnc3[nH]ccc23)n1 (stereo unspecified),"viability, T/C",compound 0.0316 µM,98.9% and 93.7% and 101%
same,"viability, T/C",compound 0.1 µM,81.9% and 86.5% and 95.8%
same,"viability, T/C",compound 0.316 µM,83.6% and 94.9% and 77%
same,"viability, T/C",compound 1 µM,83.5% and 68.5% and 90.1%
same,"viability, T/C",compound 3.16 µM,56.5% and 65.7% and 59.5%
same,"viability, T/C",compound 10 µM,46.4% and 44.1% and 36.8%
same,IC50,curve of compound,7.16 µM and 7.09 µM and 5.6 µM
